Results on 17 compounds are retold here after patent publication US10954214B2 (Janssen Pharmaceutica NV, priority 2016, dated 2021).

Where only a bound is given, the exact number is not on record here.

One test has as its system TMD8 cells. Briefly: 4-day proliferation assay, TMD8. The test is classed as cell-based. As to conditions: Homo sapiens, 96 h, 4 days incubation, CellTiterGLO, read-out: Anti-proliferation: TMD-8 IC50. The protocol:
(§1) To assess anti-proliferative effects, MALT1 inhibitor test compounds were tested in 4-day proliferation assays using three different DLBCL cell lines.
(§2) Cells should be kept between 0.5-2.5 million cells per mL during culturing and cells should be supplemented every 2-3 days with fresh 50 μM beta-mercaptoenthanol. No beta-mercaptoethanol is used during the proliferation assay. OCI-Ly7 cells were propagated in IMDM (ThermoFisher) supplemented with 10% fetal bovine serum (HyClone), 2 mM L-glutamine (Sigma Aldrich) and 50 μg/mL Gentamycin. Cell passage numbers should not exceed 30 (for OCI-Ly3 cells with passage number lower than 10 were used).
(§3) 10,000 TMD8, 10,000 OCI-Ly3 or 2,000 OCI-Ly7 cells were seeded in 100 μL media per well and incubated for 4 days at 37° C. and 5% CO2. Cell plating numbers were chosen based on growth curves to ensure linear cell growth. After 4 days of incubation 50 μL CellTiterGLO reagent (Promega) were added to each well and luminescence was measured on the Envision after 10 min of incubation at room temperature.
(§4) LC=median of the low control values
(§5) An estimate of the slope of the plot in terms of the Hill coefficient was also obtained.
Background: ATP-based viability assays read luminescence as a measure of living cells.

The target of test [1] is full-length MALT1 protein (Strep-MALT1(1-824)-His) (Homo sapiens (Human), UniProt Q9UDY8). Briefly: MALT1 Biochemical Protease Assay (Ac-LRSR-AMC substrate). The conditions noted are these: 10 nM FL MALT1, 200 μM Ac-LRSR-AMC, 4 h at RT; read-out: MALT1_Biochemical activity (Ac-LRSR-amc) IC50. In short, it runs like this: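 Fluorescence from AMC release off the quenched LRSR substrate was read after a 4 h reaction at RT. Values were normalised to no-enzyme and uninhibited controls and fitted for IC50 and Hill coefficient.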

The subject of another test is OCI-Ly3 cells. Briefly: 4-day proliferation assay, OCI-Ly3. The conditions noted are these: Homo sapiens, 96 h, 4 days incubation, CellTiterGLO, read-out: Anti-proliferation: OCI-LY-3 IC50. The format is cell-based, human. The protocol:
as §1, §2, §3, §4, §5

The test system of test [2] is IL10 secretion by TMD8 ABC-DLBCL cells. Briefly: Human IL10 Mesoscale assay (TMD-8). The test is classed as cell-based. The conditions noted are these: Homo sapiens, TMD8; TMD-8 cells, 24 h. In short, it runs like this: (§6)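 Read-out: MSD electrochemiluminescence of IL6/IL10 in supernatants. Cells (100,000/well, no beta-mercaptoethanol) were exposed to compounds at 15 μM down to 58.6 nM, 1:2 dilutions, for 24 h at 37° C, 5% CO2. Normalised between DMSO (high) and RN486 (low) controls.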

For test [3], the system named is IL6 secretion by TMD8 ABC-DLBCL cells. Kind of test: Human IL6 Mesoscale assay (TMD-8). The test is classed as cell-based. The conditions noted are these: Homo sapiens, TMD8; TMD-8 cells, 24 h. In short, it runs like this:
as §6

Chain of full-length MALT1 protein (Strep-MALT1(1-824)-His) (Q9UDY8 whole entry): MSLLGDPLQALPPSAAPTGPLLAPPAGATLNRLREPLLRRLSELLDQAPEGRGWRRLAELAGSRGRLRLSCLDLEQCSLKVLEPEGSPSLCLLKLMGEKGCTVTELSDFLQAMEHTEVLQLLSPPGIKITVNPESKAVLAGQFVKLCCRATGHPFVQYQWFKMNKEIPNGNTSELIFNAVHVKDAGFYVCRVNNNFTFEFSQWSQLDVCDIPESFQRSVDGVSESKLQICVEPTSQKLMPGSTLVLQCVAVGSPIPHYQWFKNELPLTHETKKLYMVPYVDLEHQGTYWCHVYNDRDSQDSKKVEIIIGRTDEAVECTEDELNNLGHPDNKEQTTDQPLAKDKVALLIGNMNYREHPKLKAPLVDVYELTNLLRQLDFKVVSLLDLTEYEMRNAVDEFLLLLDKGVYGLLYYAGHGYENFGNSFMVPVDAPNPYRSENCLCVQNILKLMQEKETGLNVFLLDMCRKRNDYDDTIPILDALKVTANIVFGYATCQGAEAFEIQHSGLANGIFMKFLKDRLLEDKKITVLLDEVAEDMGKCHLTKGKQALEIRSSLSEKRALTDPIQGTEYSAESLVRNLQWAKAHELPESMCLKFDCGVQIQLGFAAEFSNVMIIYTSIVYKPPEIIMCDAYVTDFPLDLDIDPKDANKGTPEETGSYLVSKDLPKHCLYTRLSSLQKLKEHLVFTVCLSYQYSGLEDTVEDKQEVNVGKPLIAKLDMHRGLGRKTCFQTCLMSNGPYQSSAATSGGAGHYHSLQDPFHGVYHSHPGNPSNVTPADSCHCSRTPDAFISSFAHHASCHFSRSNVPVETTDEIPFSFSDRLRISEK

As to `N#Cc1cc(NC(=O)c2cnn(-c3cccc4ncccc34)c2C(F)(F)F)cnc1OC1CC1` [Cpd 88, N-(5-cyano-6-cyclopropoxypyridin-3-yl)-1-(quinolin-5-yl)-5-(trifluoromethyl)-1H-pyrazole-4-carboxamide], the IC50 with TMD8 cells is roughly 12000 nM; in test [1], 107 nM; in the test with OCI-Ly3 cells, 1350 nM; in test [2] it was 209 nM; in test [3], 331 nM.

Consider `Cn1ccc(-c2ncc(NC(=O)c3cnn(-c4cccc5ncccc45)c3C(F)(F)F)cc2C#N)n1` [Cpd 89, N-(5-cyano-6-(1-methyl-1H-pyrazol-3-yl)pyridin-3-yl)-1-(quinolin-5-yl)-5-(trifluoromethyl)-1H-pyrazole-4-carboxamide], for which the IC50 in the test with TMD8 cells was greater than 20000 nM; in test [1], 41 nM; in the test with OCI-Ly3 cells, 740 nM; in test [2] it was 95 nM; in test [3], 74 nM.

In the case of `N#Cc1cc(NC(=O)c2cnn(-c3nccc4sccc34)c2C(F)(F)F)cnc1-n1nccn1` [Cpd 90, N-(5-cyano-6-(2H-1,2,3-triazol-2-yl)pyridin-3-yl)-1-(thieno[3,2-c]pyridin-4-yl)-5-(trifluoromethyl)-1H-pyrazole-4-carboxamide], the IC50 in the test with TMD8 cells was roughly 3890 nM; in test [1], 21 nM; in the test with OCI-Ly3 cells, 520 nM; in test [2] it was 135 nM; in test [3], 98 nM.

For `CN1C(=O)COc2c(Cl)cc(NC(=O)c3cnn(-c4cccc5ncccc45)c3C(F)(F)F)cc21` [Cpd 95, N-(8-Chloro-4-methyl-3-oxo-3,4-dihydro-2H-benzo[b][1,4]oxazin-6-yl)-1-(quinolin-5-yl)-5-(trifluoromethyl)-1H-pyrazole-4-carboxamide], the IC50 in the test with TMD8 cells is roughly 7940 nM; in test [1], 117 nM; in the test on OCI-Ly3 cells, 3800 nM; in test [2], 302 nM; in test [3] it was 646 nM.

With `CN1CCN(C(=O)c2ncc(NC(=O)c3cnn(-c4cncc5ccccc45)c3C(F)(F)F)cc2C#N)CC1` [Cpd 96, N-(5-cyano-6-(4-methylpiperazine-1-carbonyl)pyridin-3-yl)-1-(isoquinolin-4-yl)-5-(trifluoromethyl)-1H-pyrazole-4-carboxamide], the IC50 in the test with TMD8 cells is roughly 15500 nM; in test [1] it was 759 nM; in the test with OCI-Ly3 cells, 7080 nM; in test [2], 676 nM; in test [3] it was 1050 nM.

For the compound `CN1C(=O)COc2c(Cl)cc(NC(=O)c3cnn(-c4cncc5ccccc45)c3C(F)(F)F)cc21` [Cpd 97, N-(8-chloro-4-methyl-3-oxo-3,4-dihydro-2H-benzo[b][1,4]oxazin-6-yl)-1-(isoquinolin-4-yl)-5-(trifluoromethyl)-1H-pyrazole-4-carboxamide], the IC50 is roughly 5890 nM with TMD8 cells; 209 nM in test [1]; 3470 nM with OCI-Ly3 cells; 257 nM in test [2]; 575 nM in test [3].

Turning to `Cn1ccnc1-c1ncc(NC(=O)c2cnn(-c3cncc4ccccc34)c2C(F)(F)F)cc1Cl` [Cpd 98, N-(5-chloro-6-(1-methyl-1H-imidazol-2-yl)pyridin-3-yl)-1-(isoquinolin-4-yl)-5-(trifluoromethyl)-1H-pyrazole-4-carboxamide], the IC50 in the test with TMD8 cells is roughly 11000 nM; in test [1] it was 200 nM; with OCI-Ly3 cells it was 5750 nM; in test [2], 417 nM; in test [3], 468 nM.

As for `N#Cc1cc(NC(=O)c2cnn(-c3nccc4ccoc34)c2C(F)(F)F)cnc1-n1nccn1` [Cpd 99, N-(5-cyano-6-(2H-1,2,3-triazol-2-yl)pyridin-3-yl)-1-(furo[2,3-c]pyridin-7-yl)-5-(trifluoromethyl)-1H-pyrazole-4-carboxamide], the IC50 is roughly 3240 nM in the test with TMD8 cells; 11 nM in test [1]; 650 nM with OCI-Ly3 cells; 47 nM in test [2]; 68 nM in test [3].

`N#Cc1cc(NC(=O)c2cnn(-c3nccc4ncccc34)c2C(F)(F)F)cnc1-n1nccn1` [Cpd 100, N-(5-cyano-6-(2H-1,2,3-triazol-2-yl)pyridin-3-yl)-1-(1,6-naphthyridin-5-yl)-5-(trifluoromethyl)-1H-pyrazole-4-carboxamide]: the IC50 in the test on TMD8 cells is roughly 5250 nM; in test [1], 37 nM; in the test with OCI-Ly3 cells, 1950 nM; in test [2] it was 155 nM; in test [3], 251 nM.

Take `COC(=O)c1cnn(-c2ncc(NC(=O)c3cnn(-c4cccc5ncccc45)c3C(F)(F)F)cc2Cl)n1` [Cpd 108, Methyl 2-(3-chloro-5-(1-(quinolin-5-yl)-5-(trifluoromethyl)-1H-pyrazole-4-carboxamido)pyridin-2-yl)-2H-1,2,3-triazole-4-carboxylate]: the IC50 in the test with TMD8 cells is 1660 nM; in test [1], 23 nM; with OCI-Ly3 cells, 1120 nM; in test [2] it was greater than 302 nM; in test [3] it was greater than 302 nM.

For `O=C(Nc1cnc(-n2nccn2)c(Cl)c1)c1cnn(-c2cccc3nnsc23)c1C(F)(F)F` [Cpd 120, 1-(benzo[d][1,2,3]thiadiazol-7-yl)-N-(5-chloro-6-(2H-1,2,3-triazol-2-yl)pyridin-3-yl)-5-(trifluoromethyl)-1H-pyrazole-4-carboxamide], the IC50 was 1950 nM in the test with TMD8 cells; 30 nM in test [1]; 325 nM in the test with OCI-Ly3 cells; 85 nM in test [2]; 102 nM in test [3].

Regarding `Cc1nc(-n2nccn2)c(Cl)cc1NC(=O)c1cnn(-c2cncc3c(F)cccc23)c1C(F)(F)F` [Cpd 123, N-(5-chloro-2-methyl-6-(2H-1,2,3-triazol-2-yl)pyridin-3-yl)-1-(8-fluoroisoquinolin-4-yl)-5-(trifluoromethyl)-1H-pyrazole-4-carboxamide], the IC50 in the test on TMD8 cells is 501 nM; in test [1] it was 13 nM; in the test with OCI-Ly3 cells it was 395 nM; in test [2] it was 182 nM; in test [3] it was 389 nM.

Regarding `Cc1nc(-n2nccn2)c(C#N)cc1NC(=O)c1cnn(-c2cncc3c(F)cccc23)c1C(F)(F)F` [Cpd 124, N-(5-cyano-2-methyl-6-(2H-1,2,3-triazol-2-yl)pyridin-3-yl)-1-(8-fluoroisoquinolin-4-yl)-5-(trifluoromethyl)-1H-pyrazole-4-carboxamide], the IC50 with TMD8 cells amounted to 977 nM; in test [1], 20 nM; in the test with OCI-Ly3 cells, 593 nM; in test [2] it was 15 nM; in test [3], 21 nM.

On to `N#Cc1cc(NC(=O)c2cnn(-c3ccnc4sccc34)c2C(F)(F)F)cnc1-n1nccn1` [Cpd 126, N-(5-cyano-6-(2H-1,2,3-triazol-2-yl)pyridin-3-yl)-1-(thieno[2,3-b]pyridin-4-yl)-5-(trifluoromethyl)-1H-pyrazole-4-carboxamide], for which the IC50 with TMD8 cells amounted to 794 nM; in test [1], 15 nM; in the test with OCI-Ly3 cells it was 135 nM; in test [2] it was 43 nM; in test [3] it was 21 nM.

Turning to `[2H]c1ccc2c(-n3ncc(C(=O)Nc4cnc(-n5nccn5)c(C#N)c4)c3C(F)(F)F)cccc2n1` [Cpd 130, N-(5-cyano-6-(2H-1,2,3-triazol-2-yl)pyridin-3-yl)-1-(2-D-quinolin-5-yl)-5-(trifluoromethyl)-1H-pyrazole-4-carboxamide], the IC50 came out at 3470 nM in the test on TMD8 cells; 17 nM in test [1]; 417 nM with OCI-Ly3 cells; 166 nM in test [2]; 214 nM in test [3].

In the case of `[2H]c1ccc2c(-n3ncc(C(=O)Nc4cnc(-n5nccn5)c(Cl)c4)c3C(F)(F)F)cccc2n1` [Cpd 131, N-(5-chloro-6-(2H-1,2,3-triazol-2-yl)pyridin-3-yl)-1-(2-Dquinolin-5-yl)-5-(trifluoromethyl)-1H-pyrazole-4-carboxamide], the IC50 in the test with TMD8 cells came to 2630 nM; in test [1] it was 17 nM; with OCI-Ly3 cells, 265 nM; in test [2] it was 21 nM; in test [3] it was 56 nM.

With `N#Cc1cc(NC(=O)c2cnn(-c3cccc4ncccc34)c2C(F)(F)F)ccc1-n1nccn1` [Cpd 133, N-(3-cyano-4-(2H-1,2,3-triazol-2-yl)phenyl)-1-(quinolin-5-yl)-5-(trifluoromethyl)-1H-pyrazole-4-carboxamide], the IC50 is 3310 nM with TMD8 cells; 19 nM in test [1]; 273 nM with OCI-Ly3 cells; 54 nM in test [2]; 126 nM in test [3].
